Test results taken from US20230407243A1, “GENETIC PLATFORM TO INVESTIGATE THE FUNCTIONS OF BACTERIAL DRUG EFFLUX PUMPS” (priority 2022, published 2023).
Read-outs that look alike come from different tables or passages of the source.

Legend:
Type in all cases: cell-based, Escherichia coli
[1] = tested on: EKO-35 araC::emrAB Pore; assay: MIC susceptibility profiling, porinated efflux platform; settings: for MIC: Escherichia coli, read-out: Minimum inhibitory concentration; for MIC / Minimum inhibitory concentration: EKO-35 araC::emrAB Pore, technical duplicate; for Fold changes of MICs: EKO-35 araC::emrAB Pore compared to EKO-35-Pore
Procedure, shortened: (§1)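 MIC values come from background-corrected OD600 readings (pre-incubation OD subtracted) after 18 h at 37 °C and 900 rpm in MHB II. Compounds were tested in duplicate as 2-fold dilutions. The inoculum came from 18 h LB cultures adjusted to OD600 ~1.0 and diluted 1/2000, and the pore-bearing strains were vancomycin-checked beforehand.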

[2] = tested on: EKO-35 araC::mdtBC Pore; assay: as above; settings: for MIC: Escherichia coli, read-out: Minimum inhibitory concentration; for MIC / Minimum inhibitory concentration: EKO-35 araC::mdtBC Pore, technical duplicate; for Fold changes of MICs: EKO-35 araC::mdtBC Pore compared to EKO-35-Pore
Procedure, shortened: as §1

[3] = tested on: EKO-35 araC::mexCD Pore; assay: as above; settings: for MIC: Escherichia coli, read-out: Minimum inhibitory concentration; for MIC / Minimum inhibitory concentration: EKO-35 araC::mexCD Pore, technical duplicate; for Fold changes of MICs: EKO-35 araC::mexCD Pore compared to EKO-35-Pore; for efflux pump-mediated resistance vs EKO-35-Pore: MexCD, OM compromised
Procedure, shortened: as §1

[4] = tested on: EKO-35 araC::acrBD408A Pore; assay: as above; settings: for MIC: Escherichia coli, read-out: Minimum inhibitory concentration; for MIC / Minimum inhibitory concentration: EKO-35 araC::acrBD408A Pore, technical duplicate; for Fold changes of MICs: EKO-35 araC::acrBD408A Pore compared to EKO-35-Pore
Procedure, shortened: as §1

[5] = tested on: EKO-35 araC::acrD Pore; assay: as above; settings: for MIC: Escherichia coli, read-out: Minimum inhibitory concentration, EKO-35 araC::acrD Pore; for MIC / Minimum inhibitory concentration, EKO-35 araC::acrD Pore: Table 14A, porinated, technical duplicate; for Fold changes of MICs: EKO-35 araC::acrD Pore compared to EKO-35-Pore
Procedure, shortened: as §1

[6] = tested on: EKO-35-Pore; assay: MIC susceptibility profiling, porinated strain; settings: for MIC: Escherichia coli; for MIC / Minimum inhibitory concentration (MIC), Pore EKO-35 / Minimum inhibitory concentration, EKO-35-Pore: technical duplicate; for Fold changes of MICs: EKO-35-Pore compared to EKO-35-Pore (reference)
Procedure, shortened: as §1

[7] = tested on: ΔtolC; settings: for PABN MICa Alone: PAβN alone, one value per checkerboard
Method: (§2) Synergy measurement using checkerboard analysis was performed in 96-well microtiter plates using the microdilution broth method, according to CLSI guidelines (Patel J. B., 2015). The cell inocula were prepared using the colony resuspension method. The minimum inhibitory concentrations (MICs) were defined as the lowest concentration that provided no growth, as determined by measurement of the OD600nm using a Synergy H1 microplate reader (BioTek). Susceptibility testing was performed in MHB II with a final volume of 100 μL. PAI3N (Bachem Americas) was solubilized in MHB II. […] Solvent controls were included in each plate.
(§3) The Fractional Inhibitory Concentration Index (FICI) was used to assess the synergy of PAI3N in combination with different antibiotics. The FICI represents the ΣFIC of each drug. The FICI for each drug was calculated using the following formula: FICI=FICA+FICB=(CA/MICA)+(CB/MICB). Where MICA and MICB are the MICs of drugs A (PAI3N/NMP) and B (antibiotic) alone, and CA and CB are the MICs of the drugs in combination. The effects of PAβN or NMP in combination with antibiotics were classified as: synergistic (FICI<0.5), additive (FICI>0.5-1.0), indifferent (FICI>1.0-2.0), and antagonistic (FICI>2.0). Fold increases in resistance provided by efflux pumps were calculated by dividing the MIC values of strains expressing efflux pumps by the MIC value of EKO-35.

[8] = tested on: EKO-35 acrBD408A; settings: for PABN MICa Alone: PAβN alone, one value per checkerboard
Method: as §2, §3

[9] = tested on: EKO-35 araC::acrB Pore; assay: MIC susceptibility profiling, porinated efflux platform; settings: for Fold changes of MICs: EKO-35 araC::acr-B Pore compared to EKO-35-Pore; for Minimum inhibitory concentration, EKO-35 araC::acrB Pore: Table 14A, porinated, technical duplicate
Procedure, shortened: as §1

[10] = Table 10, with pore, read-out: Minimum inhibitory concentration (MIC), Pore EKO-35
[11] = Table 14A, porinated, read-out: Minimum inhibitory concentration, EKO-35-Pore
[12] = EKO-35 acrBD408A, NMP + antibiotic
[13] = EKO-35 acrBD408A, PAβN + antibiotic
[14] = strain EKO-35 acrBD408A, NMP + antibiotic

| Molecule | MIC [1] [µg/mL] | MIC [2] [µg/mL] | MIC [3] [µg/mL] | MIC [4] [µg/mL] | MIC [5] [µg/mL] | MIC [6, 10] [µg/mL] | MIC [6, 11] [µg/mL] | Fold changes of MICs [1] [fold] | Minimum inhibitory concentration [1] [µg/mL] | Fold changes of MICs [2] [fold] | Minimum inhibitory concentration [2] [µg/mL] | Fold changes of MICs [3] [fold] | Minimum inhibitory concentration [3] [µg/mL] | Fold changes of MICs [9] [fold] | Minimum inhibitory concentration, EKO-35 araC::acrB Pore [9] [µg/mL] | Fold changes of MICs [4] [fold] | Minimum inhibitory concentration [4] [µg/mL] | Fold changes of MICs [5] [fold] | Minimum inhibitory concentration, EKO-35 araC::acrD Pore [5] [µg/mL] | Fold changes of MICs [6] [fold] | further results |
| --- | --- | --- | --- | --- | --- | --- | --- | --- | --- | --- | --- | --- | --- | --- | --- | --- | --- | --- | --- | --- | --- |
| CC[C@H]1OC(=O)[C@H](C)[C@@H](O[C@H]2C[C@@](C)(OC)[C@@H](O)[C@H](C)O2)[C@H](C)[C@@H](O[C@@H]2O[C@H](C)C[C@H](N(C)C)[C@H]2O)[C@](C)(O)C[C@@H](C)C(=O)[C@H](C)[C@@H](O)[C@]1(C)O [erythromycin] | 0.195 | 0.195 | 1.56 | 0.098 | 0.195 | 0.195 | 0.195 |  |  |  |  |  |  |  |  |  |  |  |  |  | Effect ([7]; strain ΔtolC, NMP + antibiotic): — (indifferent (FICI >1.0)); FICI ([7]; strain ΔtolC, NMP + antibiotic): 1.000; MICb Alone ([7]; strain ΔtolC, antibiotic alone): 4 µg/mL; MICb Combined ([7]; strain ΔtolC, antibiotic in combination with NMP): 2 µg/mL; FICI ([7]; ΔtolC, NMP + antibiotic): 1.000; Effect ([7]; ΔtolC, PAβN + antibiotic): Synergistic; FICI ([7]; ΔtolC, PAβN + antibiotic): 0.188; MICb Alone ([7]; ΔtolC, antibiotic alone (PAβN checkerboard)): 4 µg/mL; MICb Combined ([7]; ΔtolC, antibiotic in combination with PAβN): 0.25 µg/mL; Effect [8, 12]: Synergistic; FICI [8, 12]: 0.500; Effect [8, 13]: Synergistic; FICI [8, 13]: 0.190; MICb Alone ([8]; EKO-35 acrBD408A, antibiotic alone (PAβN checkerboard)): 2 µg/mL; MICb Combined ([8]; EKO-35 acrBD408A, antibiotic in combination with PAβN): 0.13 µg/mL; Effect [8, 14]: Synergistic (Synergy (FICI ≤0.5)); FICI [8, 14]: 0.500; MICb Alone ([8]; strain EKO-35 acrBD408A, antibiotic alone): 2 µg/mL; MICb Combined ([8]; strain EKO-35 acrBD408A, antibiotic in combination with NMP): 0.5 µg/mL |
| O=C(Nc1ccc(C(F)(F)F)cc1)Nc1ccc(C(F)(F)F)cc1 [compound 7] |  |  |  |  |  |  |  | 1 | 320 | 1 | 320 | 1 | 320 | 1 | 320 | 1 | 320 | 1 | 320 | 1 | Minimum inhibitory concentration (MIC), Pore EKO-35 ([6]; Table 10, with pore): 320 µg/mL; Minimum inhibitory concentration, EKO-35-Pore ([6]; Table 14A, porinated): 320 µg/mL |
| deoxycholate |  |  |  |  |  |  |  | 4 | 750 | 4 | 750 | 2 | 375 | 8 | 1500 | 1 | 93.75 | 8 | 1500 | 1 | efflux pump-mediated resistance vs EKO-35-Pore [3]: no longer associated MexCD with resistance; Minimum inhibitory concentration (MIC), Pore EKO-35 ([6]; Table 10, with pore): 187.5 µg/mL; Minimum inhibitory concentration, EKO-35-Pore ([6]; Table 14A, porinated): 187.5 µg/mL |
| CN[C@H](CC(C)C)C(=O)N[C@H]1C(=O)N[C@@H](CC(N)=O)C(=O)N[C@H]2C(=O)N[C@H]3C(=O)N[C@H](C(=O)N[C@H](C(=O)O)c4cc(O)cc(O)c4-c4cc3ccc4O)[C@H](O)c3ccc(c(Cl)c3)Oc3cc2cc(c3O[C@@H]2O[C@H](CO)[C@@H](O)[C@H](O)[C@H]2O[C@H]2C[C@](C)(N)[C@H](O)[C@H](C)O2)Oc2ccc(cc2Cl)[C@H]1O [vancomycin] |  | 1.56 | 6.25 | 6.25 |  | 6.25 | 6.25 | 1 |  | 0 |  | 1 |  | 1 |  | 1 |  | 1 |  | 1 |  |
| CCn1cc(C(=O)O)c(=O)c2cc(F)c(N3CCNCC3)cc21 [norfloxacin] | 0.02 | 0.02 | 0.039 | 0.02 | 0.02 | 0.01 | 0.01 | 2 |  | 2 |  | 4 |  | 8 |  | 2 |  | 2 |  | 1 | efflux pump-mediated resistance vs EKO-35-Pore [3]: increased resistance |
| CC1(C)S[C@@H]2[C@H](NC(=O)[C@H](N)c3ccccc3)C(=O)N2[C@H]1C(=O)O [ampicillin] | 0.781 | 0.781 | 1.56 | 0.781 | 25 | 1.56 | 1.56 | 1 |  | 1 |  | 1 |  | 8 |  | 1 |  | 16 |  | 1 |  |
| NCCCNCCCCNCCCN [Spermine] |  |  |  | 500 |  |  |  | 1 |  | 1 |  | 1 |  | 1 |  |  |  | 1 |  | 1 |  |
| C=C1CCO[C@]2([C@@H](O)[C@@](C)(O)CO)NC(=O)[C@@]1(O)NC2=O [Bicyclomycin] |  |  |  |  |  |  |  | 1 | 200 | 1 | 200 | 1 | 200 | 1 | 200 | 1 | 200 | 1 | 200 | 1 | Minimum inhibitory concentration (MIC), Pore EKO-35 ([6]; Table 10, with pore): 200 µg/mL; Minimum inhibitory concentration, EKO-35-Pore ([6]; Table 14A, porinated): 200 µg/mL |
| phenylalanine-arginine-β-naphthylamide [PAβN] |  |  |  |  |  |  |  |  |  |  |  |  |  |  |  |  |  |  |  |  | PABN MICa Alone ([7]; ΔtolC): 64 µg/mL; PABN MICa Alone ([7]; ΔtolC, listed as PABN): 128 µg/mL; PABN MICa Combined ([7]; ΔtolC, with Ciprofloxacin): 32 µg/mL; PABN MICa Combined ([7]; ΔtolC, with Erythromycin): 8 µg/mL; PABN MICa Combined ([7]; ΔtolC, with Fusidic Acid): 16 µg/mL; PABN MICa Combined ([7]; ΔtolC, with Linezolid): 64 µg/mL; PABN MICa Combined ([7]; ΔtolC, with Novobiocin): 16 µg/mL; PABN MICa Combined ([7]; ΔtolC, with Oxacillin): 8 µg/mL; PABN MICa Alone ([8]; EKO-35 acrBD408A): 64 µg/mL; PABN MICa Alone ([8]; EKO-35 acrBD408A, listed as PABN): 128 µg/mL; PABN MICa Combined ([8]; EKO-35 acrBD408A, with Ciprofloxacin): 8 µg/mL; PABN MICa Combined ([8]; EKO-35 acrBD408A, with Erythromycin): 8 µg/mL; PABN MICa Combined ([8]; EKO-35 acrBD408A, with Fusidic Acid): 8 µg/mL; PABN MICa Combined ([8]; EKO-35 acrBD408A, with Linezolid): 32 µg/mL; PABN MICa Combined ([8]; EKO-35 acrBD408A, with Novobiocin): 8 µg/mL; PABN MICa Combined ([8]; EKO-35 acrBD408A, with Oxacillin): 16 µg/mL |
